In patent US11912683B1 (priority 2023, dated 2024):
In brackets after ≈: the same amount, converted by molar mass.

Tested on: multidrug-resistant (MDR) strains of Mycobacterium tuberculosis
Assay: microbe, parasite or virus in culture
Type: cell-based
Conditions: 192 h, read-out: Anti-tubercular activity against Mycobacterium tuberculosis MDR (MIC)

In order of falling MIC:
1. CC1=C(C(=O)N2CCCCC2)C(c2ccc(C(F)(F)F)cc2)NC(=S)N1 (stereo not shown) [DHPM-KN10, (6-Methyl-2-thioxo-4-(4-(trifluoromethyl)phenyl)-1,2,3,4-tetrahydropyrimidin-5-yl)(piperidin-1-yl)methanone]  256 µg/mL (≈ 668 µM)
2. COc1ccc(C2NC(=S)NC(C)=C2C(=O)N2CCCCC2)cc1 (stereo not shown) [DHPM-KN7, (4-(4-Methoxyphenyl)-6-methyl-2-thioxo-1,2,3,4-tetrahydropyrimidin-5-yl)(piperidin-1-yl)methanone]  256 µg/mL (≈ 741 µM)
3. CC1=C(C(=O)N2CCCCC2)C(c2ccccc2C)NC(=S)N1 (stereo not shown) [DHPM-KN8, (6-Methyl-2-thioxo-4-(o-tolyl)-1,2,3,4-tetrahydropyrimidin-5-yl)(piperidin-1-yl)methanone]  256 µg/mL (≈ 777 µM)
4. CC1=C(C(=O)N2CCCCC2)C(c2ccc(Br)cc2)NC(=S)N1 (stereo not shown) [DHPM-KN6, (4-(4-Bromophenyl)-6-methyl-2-thioxo-1,2,3,4-tetrahydropyrimidin-5-yl)(piperidin-1-yl)methanone]  128 µg/mL (≈ 325 µM)
5. CC1=C(C(=O)N2CCCCC2)C(c2ccccc2)NC(=S)N1 (stereo not shown) [DHPM-KN1, (6-Methyl-4-phenyl-2-thioxo-1,2,3,4-tetrahydropyrimidin-5-yl)(piperidin-1-yl)methanone]  64 µg/mL (≈ 203 µM)
6. COC(=O)C1=C(C)NC(=O)NC1c1ccc([N+](=O)[O-])cc1[N+](=O)[O-] (stereo not shown) [DHPM-KN4, Methyl 4-(2,4-dinitrophenyl)-6-methyl-2-oxo-1,2,3,4-tetrahydropyrimidine-5-carboxylate]  64 µg/mL (≈ 190 µM)
7. CC1=C(C(=O)N2CCCCC2)C(c2ccc([N+](=O)[O-])cc2)NC(=S)N1 (stereo not shown) [DHPM-KN5, (6-Methyl-4-(4-nitrophenyl)-2-thioxo-1,2,3,4-tetrahydropyrimidin-5-yl)(piperidin-1-yl)methanone]  32 µg/mL (≈ 88.8 µM)
